One block for each compound: values may come before it.
How the values were obtained:
PLC/PRF/5 cells [1] = test: MTT cell viability assay, PLC/PRF/5; type: cell-based, human; settings: PLC/PRF/5, 72 h
Procedure: (§1) Cells were seeded in 96-well plates (3,000 cells/well) and incubated overnight for attachment, and were then treated with indicated agents in 10% FBS-supplemented medium for 72 hours. The medium was replaced with MTT (0.5 mg/ml) at 37°C for 2 hours. After removal of medium, the cells were lysed with 200 μl per well dimethyl sulfoxide (DMSO), and absorbance at 570 nm was measured and the values of 50% inhibition concentration (IC50) for each drug were determined. Cell viability was evaluated by measuring the optical density at 570 nm using an Automated Microplate Reader (Bio-Tek, USA). The percentage of viable cells was calculated using the following formula: cell viability (%) = (OD of treated cells/OD of control cells) × 100. All assays were performed in triplicate with at least 3 independent experiments.

HepG2 cells = test: MTT cell viability assay, HepG2; type: cell-based; settings: Homo sapiens, HepG2, 72 h
Procedure: as §1

HuH7 cells = test: MTT cell viability assay, HuH7; type: cell-based; settings: Homo sapiens, Huh-7, HuH7, 72 h
Procedure: as §1

PLC/PRF/5 cells [2] = test: cell-cycle distribution by flow cytometry; type: cell-based, human; settings: PLC/PRF/5, 72 h, single agent
Procedure: As sorafenib and c-Met inhibitors reportedly induce apoptosis in cancer cells, we examined the impact of our drug combination on programmed cell death. First, the effect of co-administration of DE605 and sorafenib on cell-cycle distribution was analyzed by flow cytometric analysis.
Figure 3 Effects of sorafenib in combination with DE605 on cell-cycle progression in PLC/PRF/5 cells (A) PLC/PRF/5 cells were treated with the indicated drugs for 72 hours, and cell-cycle distribution was analyzed by flow cytometry. (B) Statistical analysis of sub-G1 phase in PLC/PRF/5 cells exposed to DMSO, sorafenib alone, DE605 alone, or in sorafenib/DE605 combination. Data, mean ± SD (n = 3).
After drug treatment, the cells were harvested by trypsinization, washed with PBS, then pellets were resuspended and fixed in ethanol (70%, v/v) at −20°C overnight, and washed once with PBS. After centrifugation, the cells were incubated for 15 minutes at room temperature in 0.1 ml of phosphate-citric acid buffer. Cells were stained with propidium iodide staining buffer containing Triton X-100 (0.1%, v/v), RNase A (100 μg/ml), and propidium iodide (80 μg/ml) for 30 minutes in the dark. Cell-cycle distribution was analyzed by flow cytometry with CellQuest software (Becton Dickinson).

Hep3B cells = test: MTT cell viability assay, Hep3B; settings: Homo sapiens, 72 h, read-out: cell viability IC50
Procedure: as §1

[3] = test system: PLC/PRF/5 tumor xenografts; test: PLC/PRF/5 tumor xenograft model; settings: oral, qd, 28 days; sorafenib 60 mg/kg, DE605 80 mg/kg; versus control group
Procedure: (B) body weights were measured twice per week, and are expressed as mean ± SD. (C-D) IHC analysis of intratumoral proliferation in PLC/PRF/5 xenograft tumors. Tumors were harvested and paraffin-embedded tumor tissues were subjected to immunostaining for Ki-67 (C) and TUNEL (D). Images were captured by Zeiss Axioskop-2 microscope under 200× magnification. Scale bar, 100 μm.
All surgery was performed under sodium pentobarbital anesthesia, and all efforts were made to minimize suffering. Female athymic nude mice of 4–5 weeks of age were purchased from Shanghai SLAC Laboratory Animal Co., Ltd. (Shanghai, China) and were housed in the Animal Resource Facility. […] Tumors were monitored twice weekly. As previously described [54], tumor size was measured on two axes with the aid of Vernier calipers and tumor volume (mm^3) was calculated using the formula: 1/2(L × W^2) where L is the longest and W is the shortest axis. […] For tumor growth inhibition (TGI), the antitumor effects are calculated by dividing the tumor volumes from treatment groups by those of the control groups and multiplied by 100. […]
The type of cell death (necrosis/apoptosis) was evaluated by the terminal deoxynucleotidyl transferase-mediated deoxyuridine biotin nick-end labeling (TUNEL) assay with an Apo-Direct kit (Pharmingen, San Diego, CA) as previously reported [55]. […]

[4] = test system: MHCC97H human HCC xenograft model and HuPrime model with human HCC explants; settings: cited from earlier work

SMILES: O=C1NC(=O)[C@@H](c2cn3c4c(cccc24)CCC3)[C@@H]1c1c[nH]c2ccccc12 [tivantinib]
interaction with sorafenib on cell viability (combination index) (PLC/PRF/5 cells [1]; tivantinib 0.25 and 0.5 μM in combination with sorafenib): synergistic effect

IC50 (HepG2 cells): 3.3 µM | IC50 (HuH7 cells): 2.4 µM | IC50 (Hep3B cells): 10.5 µM
SMILES: CNC(=O)c1cc(Oc2ccc(NC(=O)Nc3ccc(Cl)c(C(F)(F)F)c3)cc2)ccn1 [sorafenib]
IC50 (PLC/PRF/5 cells [1]; Homo sapiens, MTT): 6.7 µM | cell-cycle arrest (PLC/PRF/5 cells [2]): no appreciable cell-cycle arrest | tumor growth inhibition (TGI) [3]: 17.3%

SMILES: CN1CCC(COc2cnc(-c3cccc(Cn4nc(-c5cccc(C#N)c5)ccc4=O)c3)nc2)CC1 [MSC2156119J]
efficacy of combination with sorafenib [4]: did not improve efficacy

— PMC4494942, “Sorafenib and DE605, a novel c-Met inhibitor, synergistically suppress hepatocellular carcinoma” (Oncotarget, 2015)
